Experimental data: patent EP1095657A2, “Compositions for the regulation of cytokine activity” (priority 1992, dated 1994)

Assays:
[1] = test system: respiratory distress after aerosolized OVA challenge; assay: Experimental allergic bronchial asthma in rats; format: in vivo, Brown Norway rats; conditions: 30 ng s.c. on day 30, challenge on day 35; saline group Grade 3 or 4
Experimental: To assess the ability of substance H-9392 to prevent a bronchial asthma attack, 6 male Brown Norway rats were primed to ovalbumin (OVA) by subcutaneous injection of 1 mg of OVA in suspension with 200 mg AlOH/ml 0.9% saline solution accompanied by intraperitoneal injection of 1 ml solution containing 6x10^6 heat killed Bordetella pertussis bacteria (Pasteur Merieux, S.V.), on day zero. Subsequent challenges consisted of a 5 minute period of inhalation of OVA (1 mg/ml solution) aerosolized in a Devilbiss Nebulizer operated at an airflow of 6 L/min. Respiratory Distress (RD) responses were scored as Grade 0, no signs of distress; Grade 1, tachypnea; Grade 2, moderate labored breathing; Grade 3 severe labored breathing with mouth open; Grade 4, loss of consciousness and muscular tone. Sixteen days following primary immunization all animals were exposed to an initial aerosolized challenge to establish the positive control. The animals were coded so that the observer was ignorant of the subject animal's history.
On day thirty, the animals were divided into 2 groups and given either saline (control Group A) or 30 ng of substance H-9392, s.c., (Group B) and challenged on day 35 as above.

[2] = test system: mortality after gamma irradiation; assay: Radioprotective effect in gamma-irradiated mice; format: in vivo, BALB/c mice
Experimental: Groups of female BALB/c mice, 8 weeks old, 5-10 mice per group, were injected subcutaneously with either saline (0.1 ml, control), H-9392 (30 ng/mouse), or glucosamine (10,000 ng/mouse) 1 day before irradiation, and weekly thereafter until termination of the experiment on day 30. All the mice were irradiated to a dose of 700 rads using a ^60Co gamma radiation source.
In a separate experiment, groups of BALB/c mice (5 mice to a group) were likewise exposed to 750 rads of gamma-rays, except that these groups of mice were treated with test substances (saline at 0.1 ml per mouse; H-9392 at 0.3, 3, 30 and 300 ng/mouse; and glucosamine at 1, 10 and 100 µg/mouse) on the day before irradiation, on the sixth day after irradiation, and once again on the thirteenth day after irradiation only. All treatment ceased after the third and last administration.

[3] = test system: secretion of active TNF-α by activated human CD4+ T cells; assay: Bioassay of TNF-α activity using human CD4+ T cells derived from PBLs (human PBL bioassay); conditions: conc range of 1 µg/ml - 0.01 pg/ml; inconsistent = not the same result in all three bioassays
IDDM of NOD mice = assay: Insulin dependent diabetes mellitus (IDDM) of NOD mice; format: in vivo
[4] = test system: experimental DTH reaction in mice; assay: In vivo bioassay of inhibition of experimental DTH reactivity (oxazolone ear swelling); set-up: species or system mice (BALB/c or CD1); conditions: CD1 mice, s.c.
Experimental: Groups of inbred BALB/c (Jackson Laboratories, Bar Harbor, ME) or of outbred CD1 (Weizmann Institute Animal Breeding Center, Rehovot, Israel) mice are sensitized on the shaved abdominal skin with 100 µl of 2% oxazolone (OX) in acetone/olive oil (4/1, v/v) applied topically. DTH sensitivity is elicited 5 days later as follows: mice are challenged with 20 µl of 0.5% OX (10 µl administered topically to each side of the ear) in acetone/olive oil. A constant area of the ear is measured immediately before challenge and 24 and 48 h later with a Mitutoyo engineer's micrometer. The individual measuring ear swelling is blinded to the identity of the groups of mice. The increment (△) of ear swelling is expressed as the mean in units of 10^-2 mm or 10^-4 inch (+SE) depending on the micrometer that is used. Percent inhibition is calculated as follows: %Inhibition= 1-((Treated-negative control)/(positive control-negative control)) [formula]
Mice are treated with LMWH as in Example 5.1, injected the day before primary sensitization to OX. On the fifth day after sensitization to OX, the mice are challenged to induce a DTH reaction, as described above.
The positive control is the DTH reaction elicited in immunized mice in the absence of treatment with LMWH. The negative control is the background swelling produced by the antigen in naive (non-immunized) mice.
BALB/c mice (at least 5 mice per group) were sensitized on the shaved abdomen with 3% 4-ethoxymethylene-2-phenyl oxazolone (OX; BDH Chemicals, GB) in acetone/olive oil applied topically. DTH sensitivity was elicited 5 days later as follows. Mice were challenged with 0.5% OX in acetone/olive oil. The ear was measured immediately before challenge and 24 h later with Mitutoyo engineer's micrometer (Japan). The individual measuring the swelling of the ear was blinded to the identity of the groups of mice. To interfere with DTH response, the low molecular weight immuno-regulatory fractions, diluted in PBS, were administrated subcutaneously into the back of the treated mice at the indicated time schedules and concentrations. Treated mice were inspected during and after (>2 months) the treatment and no major side-effects were observed clinically.
In particular, CD1 mice (available from the Weizmann Institute Animal Breeding Center, Rehovot, Israel), 4-12 mice per group, were treated as described in Section 5.2 or 6.8.

[5] = test system: adjuvant arthritis in Lewis rats; assay: Adjuvant arthritis (AA) in rats; format: in vivo
[6] = test system: C57BL/6 skin grafts on BALB/c mice; assay: Skin allograft rejection in mice; format: in vivo
Experimental: The effect of H-9392 was also tested in skin graft rejection experiments in mice. In particular, skin grafts from C57BL/6 donor mice (H-2^b) were applied to recipient BALB/c mice (H-2^d) according to the method of Baharav, E. et al. J. Immunol. Methods (1986) 90:143-144. The number of days to rejection was measured by the sloughing of the graft. The number of days to rejection was determined for a control group (injected with saline only, 0.1 ml), and test groups that received 3 ng or 300 ng of H-9392 by subcutaneous injection one day before grafting and weekly thereafter. The results, which are graphically represented in FIGS. 40 and 40A, reveal that the 3 ng/mouse dose delayed the level of skin graft rejection at 50% by 5 days!

O=C(O)C1=C[C@H](O)[C@@H](OS(=O)(=O)O)[C@H](O[C@H]2[C@H](O)[C@@H](NS(=O)(=O)O)C(O)O[C@@H]2CO)O1 (stereo partly drawn) [H-9392, 2-O-sulfate-4-deoxy-4-en-iduronic acid-(α-1,4)-2-deoxy-2-N-sulfateglucosamine]
respiratory distress after challenge, in words [1]: mere tachypnea
mortality rate ([2]; 700 rads, by day 30, s.c. 1 day before irradiation and weekly, H-9392 30 ng/mouse, glucosamine 10,000 ng/mouse, saline 100%): 40%
mice that had died by the thirtieth day after irradiation ([2]; 750 rads, 30 ng/mouse, three administrations, 5 mice to a group): only one mouse
activity in suppressing mortality after irradiation, in words ([2]; 750 rads, three administrations, 300 ng H-9392, 1 µg glucosamine): moderate activity in suppressing mortality
Bioassay of TNF Activity, in words [3]: Inconsistent
mice that had become diabetic (IDDM of NOD mice; at 4.5 months, H-9392 30 ng/mouse, glucosamine 10,000 ng/mouse s.c., all control mice diabetic): less than 50%
mice that had died, in words (IDDM of NOD mice; by age 5 months, H-9392 30 ng, glucosamine 10,000 ng, all control mice had died): none
Inhmax [4]: 78%
DTH ([4]; at that dose, value in parentheses in the cell taken as positive control, not reported): 4.2 ± 0.7 (17.8 ± 0.9) 10^-2 mm
dose window ([4]; broadest of the compounds tested): 0.000132-0.004 µg/gm
"R" value ([4]; inhibitory, 0 = no effect): 6.5 x 10^4 % x (μg/gm)^-1
suppression of the inflammation of AA ([5]; 120 ng/rat or 0.6 ng/gm rat s.c. weekly from 1 day before induction, 24 days after induction): up to 90%
effect on AA, in words ([5]; weekly or daily, beginning at day 0 or at day 12): positive suppression of the severity of AA in all cases
effect on AA at 30 days post-induction, in words ([5]; weekly s.c. from day 12 to day 26, 120 ng disaccharide or 100 µg dexamethasone phosphate per rat): almost complete suppression
delay of the level of skin graft rejection at 50% ([6]; 3 ng/mouse s.c. one day before grafting and weekly thereafter): 5 days
difference at 50% rejection relative to control, in words ([6]; 300 ng/mouse s.c. one day before grafting and weekly thereafter): failed to produce a significant difference
